# In PubChem BioAssay (NCI):
#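 All cell lines were grown in 96-well plates and treated with compound for 48 hours. Abbreviation: GI50, concentration required for 50% inhibition of growth. TGI: concentration producing complete growth inhibition.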
# Legend:
# Assay in all cases: NCI-60 cell line screen, 48 h
# [1] = test system: NCI-H23 lung
# [2] = test system: NCI-H460 lung
# [3] = test system: NCI-H522 lung
# [4] = test system: NCI/ADR-RES ovarian
# [5] = test system: OVCAR-3 ovarian
# [6] = test system: OVCAR-4 ovarian
# [7] = test system: OVCAR-5 ovarian
# [8] = test system: OVCAR-8 ovarian
# [9] = test system: PC-3 prostate
# [10] = test system: RPMI-8226 leukemia
# [11] = test system: RXF 393 renal
# [12] = test system: SF-268 CNS
# [13] = test system: SF-295 CNS
# [14] = test system: SF-539 CNS
# [15] = test system: SK-MEL-2 melanoma
# [16] = test system: SK-MEL-28 melanoma
# [17] = test system: SK-MEL-5 melanoma
# [18] = test system: SK-OV-3 ovarian
# [19] = test system: SN12C renal
# [20] = test system: SNB-19 CNS
# [21] = test system: SNB-75 CNS
# [22] = test system: SR leukemia
# [23] = test system: SW-620 colon
# [24] = test system: T-47D breast
# [25] = test system: TK-10 renal
# [26] = test system: U251 CNS
# [27] = test system: UACC-257 melanoma
# [28] = test system: UACC-62 melanoma
# [29] = test system: UO-31 renal
structure (smiles),measurement,setting,value
COc1ccc(/C=N/NC(=O)c2cccc3cc[nH]c23)cc1O,TGI,[1],> 100 µM
same,GI50,[2],2.03 µM
same,TGI,[2],> 68.3 µM
same,GI50,[3],2.26 µM
same,TGI,[3],> 100 µM
same,GI50,[4],1.86 µM
same,TGI,[4],> 100 µM
same,GI50,[5],0.307 µM
same,TGI,[5],1.89 µM
same,GI50,[6],10.3 µM
same,TGI,[6],> 100 µM
same,GI50,[7],> 54.6 µM
same,TGI,[7],> 100 µM
same,GI50,[8],6.2 µM
same,TGI,[8],> 100 µM
same,GI50,[9],2.05 µM
same,TGI,[9],> 100 µM
same,GI50,[10],3.38 µM
same,TGI,[10],24.8 µM
same,GI50,[11],5.83 µM
same,TGI,[11],> 100 µM
same,GI50,[12],4.01 µM
same,TGI,[12],> 100 µM
same,GI50,[13],0.736 µM
same,TGI,[13],> 24.8 µM
same,GI50,[14],1.85 µM
same,TGI,[14],> 100 µM
same,GI50,[15],18.9 µM
same,TGI,[15],> 100 µM
same,GI50,[16],6.46 µM
same,TGI,[16],> 100 µM
same,GI50,[17],1.27 µM
same,TGI,[17],> 80.7 µM
same,GI50,[18],9.87 µM
same,TGI,[18],> 100 µM
same,GI50,[19],0.493 µM
same,TGI,[19],> 40.9 µM
same,GI50,[20],4.07 µM
same,TGI,[20],> 100 µM
same,GI50,[21],0.24 µM
same,TGI,[21],> 100 µM
same,GI50,[22],0.349 µM
same,TGI,[22],> 41.2 µM
same,GI50,[23],0.65 µM
same,TGI,[23],> 100 µM
same,GI50,[24],5.74 µM
same,TGI,[24],> 100 µM
same,GI50,[25],14.4 µM
same,TGI,[25],> 100 µM
same,GI50,[26],2.4 µM
same,TGI,[26],> 100 µM
same,GI50,[27],> 42.8 µM
same,TGI,[27],> 100 µM
same,GI50,[28],0.878 µM
same,TGI,[28],> 35.1 µM
same,GI50,[29],6.51 µM
same,TGI,[29],> 100 µM
